Test results as given in the kinase profiling compilation of Christmann-Franck et al. (2016).
One block for each molecule: values may come before it.

Columns and labels:
Experiment in all cases: KINOMEscan competition binding
Conditions in all cases: compound 10.0 µM
PRKCD (human) = PRKCD (human) (UniProt Q05655)
LATS2 (human) = LATS2 (human) (UniProt Q9NRM7)
MAK (human) = MAK (human) (UniProt P20794)
ITK (human) = ITK (human) (UniProt Q08881)
ROS1 (human) = ROS1 (human) (UniProt P08922)
ULK3 (human) = ULK3 (human) (UniProt Q6PHR2)
CDK14 (human) = CDK14 (human) (UniProt O94921)
[1] = system: KIT (human), P10721 [V559D/V654A]
SIK1 (human) = SIK1 (human) (UniProt P57059)
ROCK1 (human) = ROCK1 (human) (UniProt Q13464)
CDC42BPB (human) = CDC42BPB (human) (UniProt Q9Y5S2)
[2] = system: KIT (human), P10721 [V559D]
MAP3K3 (human) = MAP3K3 (human) (UniProt Q99759)
BRSK2 (human) = BRSK2 (human) (UniProt Q8IWQ3)
LCK (human) = LCK (human) (UniProt P06239)
AKT1 (human) = AKT1 (human) (UniProt P31749)
CDK18 (human) = CDK18 (human) (UniProt Q07002)
MAP3K9 (human) = MAP3K9 (human) (UniProt P80192)
PAK4 (human) = PAK4 (human) (UniProt O96013)
[3] = system: FLT3 (human), P36888 [K663Q]
PRKG2 (human) = PRKG2 (human) (UniProt Q13237)
CIT (human) = CIT (human) (UniProt O14578)
PRKX (human) = PRKX (human) (UniProt P51817)
[4] = system: KIT (human), P10721 [L576P]
IRAK3 (human) = IRAK3 (human) (UniProt Q9Y616)
PLK1 (human) = PLK1 (human) (UniProt P53350)
HIPK1 (human) = HIPK1 (human) (UniProt Q86Z02)
CLK1 (human) = CLK1 (human) (UniProt P49759)
MYO3B (human) = MYO3B (human) (UniProt Q8WXR4)
MAP2K2 (human) = MAP2K2 (human) (UniProt P36507)
EPHA4 (human) = EPHA4 (human) (UniProt P54764)
LIMK2 (human) = LIMK2 (human) (UniProt P53671)
LYN (human) = LYN (human) (UniProt P07948)
ROCK2 (human) = ROCK2 (human) (UniProt O75116)
NEK5 (human) = NEK5 (human) (UniProt Q6P3R8)
CDC42BPG (human) = CDC42BPG (human) (UniProt Q6DT37)
TAOK3 (human) = TAOK3 (human) (UniProt Q9H2K8)
BRSK1 (human) = BRSK1 (human) (UniProt Q8TDC3)
PAK1 (human) = PAK1 (human) (UniProt Q13153)
PAK3 (human) = PAK3 (human) (UniProt O75914)
PRKG1 (human) = PRKG1 (human) (UniProt Q13976)
NEK6 (human) = NEK6 (human) (UniProt Q9HC98)
Sequence of NEK6 (human) (Q9HC98 whole entry, looked up): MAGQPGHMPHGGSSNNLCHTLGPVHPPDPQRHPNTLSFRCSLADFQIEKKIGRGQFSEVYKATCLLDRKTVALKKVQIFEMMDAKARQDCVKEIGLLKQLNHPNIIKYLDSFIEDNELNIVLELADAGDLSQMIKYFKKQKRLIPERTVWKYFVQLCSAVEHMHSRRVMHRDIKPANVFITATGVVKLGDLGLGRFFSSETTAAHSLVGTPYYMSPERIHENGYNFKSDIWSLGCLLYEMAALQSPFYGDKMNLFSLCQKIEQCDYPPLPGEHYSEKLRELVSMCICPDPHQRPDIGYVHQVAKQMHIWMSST

Sequence of NEK5 (human) (Q6P3R8 whole entry, looked up): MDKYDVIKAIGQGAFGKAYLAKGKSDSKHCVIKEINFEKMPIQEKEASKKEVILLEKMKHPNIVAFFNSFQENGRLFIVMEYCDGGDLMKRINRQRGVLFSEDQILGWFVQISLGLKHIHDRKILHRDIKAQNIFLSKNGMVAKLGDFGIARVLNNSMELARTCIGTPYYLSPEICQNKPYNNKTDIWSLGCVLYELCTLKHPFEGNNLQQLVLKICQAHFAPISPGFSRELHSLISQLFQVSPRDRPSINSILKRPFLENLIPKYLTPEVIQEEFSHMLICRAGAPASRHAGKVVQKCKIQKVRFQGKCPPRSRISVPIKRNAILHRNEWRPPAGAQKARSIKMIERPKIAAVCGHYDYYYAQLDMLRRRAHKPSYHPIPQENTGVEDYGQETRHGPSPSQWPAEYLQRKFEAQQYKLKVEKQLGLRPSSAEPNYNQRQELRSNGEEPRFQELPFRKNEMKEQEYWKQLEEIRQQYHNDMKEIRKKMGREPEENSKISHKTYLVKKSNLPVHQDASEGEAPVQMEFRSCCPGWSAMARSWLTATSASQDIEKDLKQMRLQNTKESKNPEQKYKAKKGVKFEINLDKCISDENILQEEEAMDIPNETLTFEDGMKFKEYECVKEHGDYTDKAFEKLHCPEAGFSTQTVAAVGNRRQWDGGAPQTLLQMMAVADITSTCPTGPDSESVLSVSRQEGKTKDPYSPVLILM
Sequence of PAK4 (human) (O96013 whole entry, looked up): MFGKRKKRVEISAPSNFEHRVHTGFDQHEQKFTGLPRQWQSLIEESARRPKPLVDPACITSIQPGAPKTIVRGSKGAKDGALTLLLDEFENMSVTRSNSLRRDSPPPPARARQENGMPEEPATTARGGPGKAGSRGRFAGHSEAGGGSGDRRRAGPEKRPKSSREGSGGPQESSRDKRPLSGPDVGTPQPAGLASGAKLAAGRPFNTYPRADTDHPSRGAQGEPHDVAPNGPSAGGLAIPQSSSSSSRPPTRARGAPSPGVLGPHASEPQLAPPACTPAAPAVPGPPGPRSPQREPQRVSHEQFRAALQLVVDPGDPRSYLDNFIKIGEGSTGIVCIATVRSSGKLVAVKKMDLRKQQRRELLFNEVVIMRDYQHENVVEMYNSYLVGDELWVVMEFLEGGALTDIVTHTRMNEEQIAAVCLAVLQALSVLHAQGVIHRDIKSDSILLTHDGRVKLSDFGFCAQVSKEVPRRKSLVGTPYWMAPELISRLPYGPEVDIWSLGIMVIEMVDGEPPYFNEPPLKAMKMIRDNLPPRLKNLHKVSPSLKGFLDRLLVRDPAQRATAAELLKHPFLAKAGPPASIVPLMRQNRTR
Sequence of KIT (human), P10721 [V559D] (P10721 whole entry V559D, looked up): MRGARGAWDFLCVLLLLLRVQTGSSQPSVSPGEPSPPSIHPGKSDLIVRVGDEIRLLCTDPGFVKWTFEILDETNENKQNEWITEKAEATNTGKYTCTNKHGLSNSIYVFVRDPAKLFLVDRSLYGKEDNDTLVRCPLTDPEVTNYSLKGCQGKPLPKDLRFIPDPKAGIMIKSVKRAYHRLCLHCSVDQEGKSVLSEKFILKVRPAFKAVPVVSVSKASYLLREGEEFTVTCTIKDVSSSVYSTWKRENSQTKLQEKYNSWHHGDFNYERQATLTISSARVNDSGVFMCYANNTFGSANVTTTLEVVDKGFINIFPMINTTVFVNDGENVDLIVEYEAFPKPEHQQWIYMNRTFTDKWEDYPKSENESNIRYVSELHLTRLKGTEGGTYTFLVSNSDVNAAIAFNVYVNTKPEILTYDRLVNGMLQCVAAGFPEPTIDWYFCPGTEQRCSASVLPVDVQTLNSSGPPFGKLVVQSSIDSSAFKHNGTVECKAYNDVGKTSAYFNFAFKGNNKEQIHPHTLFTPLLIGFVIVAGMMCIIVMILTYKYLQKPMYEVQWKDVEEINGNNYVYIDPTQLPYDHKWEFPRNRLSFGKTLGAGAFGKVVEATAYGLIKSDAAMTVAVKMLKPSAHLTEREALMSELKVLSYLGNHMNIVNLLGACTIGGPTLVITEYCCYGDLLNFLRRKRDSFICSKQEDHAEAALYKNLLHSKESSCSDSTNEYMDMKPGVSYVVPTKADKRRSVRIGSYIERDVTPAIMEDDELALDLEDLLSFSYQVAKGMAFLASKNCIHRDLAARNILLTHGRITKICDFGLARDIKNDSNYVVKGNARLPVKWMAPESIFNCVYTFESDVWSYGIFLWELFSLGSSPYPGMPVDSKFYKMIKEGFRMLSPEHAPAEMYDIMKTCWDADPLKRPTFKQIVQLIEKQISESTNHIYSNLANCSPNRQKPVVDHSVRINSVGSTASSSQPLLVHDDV
Sequence of PRKCD (human) (Q05655 whole entry, looked up): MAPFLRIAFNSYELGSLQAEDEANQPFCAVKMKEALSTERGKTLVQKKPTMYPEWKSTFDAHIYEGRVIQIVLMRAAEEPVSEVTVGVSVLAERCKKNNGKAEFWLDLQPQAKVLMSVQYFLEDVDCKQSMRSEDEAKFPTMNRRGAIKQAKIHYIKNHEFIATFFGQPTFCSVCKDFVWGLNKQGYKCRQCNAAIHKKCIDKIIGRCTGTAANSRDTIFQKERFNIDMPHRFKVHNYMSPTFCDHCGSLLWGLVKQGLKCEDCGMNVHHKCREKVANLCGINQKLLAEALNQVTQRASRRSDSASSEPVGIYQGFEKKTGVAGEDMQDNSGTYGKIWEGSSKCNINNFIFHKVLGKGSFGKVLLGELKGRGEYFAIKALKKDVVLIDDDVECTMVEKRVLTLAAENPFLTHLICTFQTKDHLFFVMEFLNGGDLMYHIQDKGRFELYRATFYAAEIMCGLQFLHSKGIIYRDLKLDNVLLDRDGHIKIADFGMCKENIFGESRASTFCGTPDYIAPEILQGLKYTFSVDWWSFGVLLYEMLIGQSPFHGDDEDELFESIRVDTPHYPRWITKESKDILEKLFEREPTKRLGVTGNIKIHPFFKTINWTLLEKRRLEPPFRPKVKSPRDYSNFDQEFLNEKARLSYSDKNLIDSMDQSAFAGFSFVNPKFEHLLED
Sequence of KIT (human), P10721 [V559D/V654A] (P10721 whole entry V559D/V654A, looked up): as the sequence (P10721 whole entry V559D, looked up) above, with V654A counted along it
Sequence of MAP3K3 (human) (Q99759 whole entry, looked up): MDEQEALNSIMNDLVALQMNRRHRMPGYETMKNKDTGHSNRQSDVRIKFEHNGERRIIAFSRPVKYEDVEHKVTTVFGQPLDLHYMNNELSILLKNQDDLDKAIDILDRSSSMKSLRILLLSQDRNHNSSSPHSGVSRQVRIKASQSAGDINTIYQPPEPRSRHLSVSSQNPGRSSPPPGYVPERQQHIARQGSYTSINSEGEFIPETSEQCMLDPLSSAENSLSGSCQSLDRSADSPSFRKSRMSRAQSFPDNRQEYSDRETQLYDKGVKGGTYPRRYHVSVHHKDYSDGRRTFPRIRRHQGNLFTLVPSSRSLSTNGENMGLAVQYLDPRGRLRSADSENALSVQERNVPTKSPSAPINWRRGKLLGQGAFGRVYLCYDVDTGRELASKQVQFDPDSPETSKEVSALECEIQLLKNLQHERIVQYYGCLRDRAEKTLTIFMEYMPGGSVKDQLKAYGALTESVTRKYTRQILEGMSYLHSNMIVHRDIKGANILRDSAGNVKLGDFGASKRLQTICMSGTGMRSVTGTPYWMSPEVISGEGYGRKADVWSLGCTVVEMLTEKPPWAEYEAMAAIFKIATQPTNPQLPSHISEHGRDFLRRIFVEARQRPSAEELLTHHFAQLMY
Sequence of PRKX (human) (P51817 whole entry, looked up): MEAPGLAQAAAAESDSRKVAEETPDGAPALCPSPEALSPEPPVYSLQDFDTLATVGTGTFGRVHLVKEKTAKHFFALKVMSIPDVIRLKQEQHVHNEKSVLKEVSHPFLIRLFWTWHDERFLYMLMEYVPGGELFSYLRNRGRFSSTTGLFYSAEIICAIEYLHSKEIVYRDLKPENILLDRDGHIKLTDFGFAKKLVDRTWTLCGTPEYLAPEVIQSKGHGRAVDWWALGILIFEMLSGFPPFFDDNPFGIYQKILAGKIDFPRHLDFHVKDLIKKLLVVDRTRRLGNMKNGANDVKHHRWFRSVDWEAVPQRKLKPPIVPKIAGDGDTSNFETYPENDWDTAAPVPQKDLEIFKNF
Sequence of PRKG1 (human) (Q13976 whole entry, looked up): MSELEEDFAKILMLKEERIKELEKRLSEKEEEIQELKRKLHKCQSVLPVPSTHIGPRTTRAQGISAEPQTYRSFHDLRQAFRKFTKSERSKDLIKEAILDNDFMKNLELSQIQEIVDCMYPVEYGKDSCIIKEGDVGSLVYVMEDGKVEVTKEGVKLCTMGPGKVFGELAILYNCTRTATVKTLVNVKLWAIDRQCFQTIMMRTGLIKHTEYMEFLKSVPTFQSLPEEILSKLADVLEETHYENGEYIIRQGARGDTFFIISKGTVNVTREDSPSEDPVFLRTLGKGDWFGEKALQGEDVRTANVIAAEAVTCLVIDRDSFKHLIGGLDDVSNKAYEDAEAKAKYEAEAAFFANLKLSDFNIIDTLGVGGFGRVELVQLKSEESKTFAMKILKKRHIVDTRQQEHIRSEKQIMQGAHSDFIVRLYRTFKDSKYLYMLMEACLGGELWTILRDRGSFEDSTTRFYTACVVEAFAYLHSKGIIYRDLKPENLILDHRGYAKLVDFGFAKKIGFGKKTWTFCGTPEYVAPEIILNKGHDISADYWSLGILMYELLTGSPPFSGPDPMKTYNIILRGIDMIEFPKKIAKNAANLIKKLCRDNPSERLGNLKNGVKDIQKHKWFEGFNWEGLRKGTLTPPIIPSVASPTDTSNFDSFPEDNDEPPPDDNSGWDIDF
Sequence of KIT (human), P10721 [L576P] (P10721 whole entry L576P, looked up): as the sequence (P10721 whole entry V559D, looked up) above, with D559V, L576P counted along it

kinase still bound, per cent of control (PRKCD (human)): 100% | kinase still bound, per cent of control (LATS2 (human)): 100% | kinase still bound, per cent of control (MAK (human)): 80% | kinase still bound, per cent of control (ITK (human)): 100% | kinase still bound, per cent of control (ROS1 (human)): 100% | kinase still bound, per cent of control (ULK3 (human)): 100% | kinase still bound, per cent of control (CDK14 (human)): 100% | kinase still bound, per cent of control [1]: 86% | kinase still bound, per cent of control (SIK1 (human)): 100% | kinase still bound, per cent of control (ROCK1 (human)): 85% | kinase still bound, per cent of control (CDC42BPB (human)): 100% | kinase still bound, per cent of control [2]: 100% | kinase still bound, per cent of control (MAP3K3 (human)): 100% | kinase still bound, per cent of control (BRSK2 (human)): 97% | kinase still bound, per cent of control (LCK (human)): 100% | kinase still bound, per cent of control (AKT1 (human)): 100% | kinase still bound, per cent of control (CDK18 (human)): 100% | kinase still bound, per cent of control (MAP3K9 (human)): 55% | kinase still bound, per cent of control (PAK4 (human)): 100% | kinase still bound, per cent of control [3]: 78% | kinase still bound, per cent of control (PRKG2 (human)): 100% | kinase still bound, per cent of control (CIT (human)): 100% | kinase still bound, per cent of control (PRKX (human)): 100% | kinase still bound, per cent of control [4]: 92% | kinase still bound, per cent of control (IRAK3 (human)): 100% | kinase still bound, per cent of control (PLK1 (human)): 5.4% | kinase still bound, per cent of control (HIPK1 (human)): 87% | kinase still bound, per cent of control (CLK1 (human)): 49% | kinase still bound, per cent of control (MYO3B (human)): 100% | kinase still bound, per cent of control (MAP2K2 (human)): 100% | kinase still bound, per cent of control (EPHA4 (human)): 100% | kinase still bound, per cent of control (LIMK2 (human)): 100% | kinase still bound, per cent of control (LYN (human)): 100% | kinase still bound, per cent of control (ROCK2 (human)): 100% | kinase still bound, per cent of control (NEK5 (human)): 93% | kinase still bound, per cent of control (CDC42BPG (human)): 100% | kinase still bound, per cent of control (TAOK3 (human)): 13% | kinase still bound, per cent of control (BRSK1 (human)): 100% | kinase still bound, per cent of control (PAK1 (human)): 100% | kinase still bound, per cent of control (PAK3 (human)): 90% | kinase still bound, per cent of control (PRKG1 (human)): 100% | kinase still bound, per cent of control (NEK6 (human)): 100%
Compound: Cc1cnc(-c2cnc(NCCNc3ccc(C#N)cn3)nc2-c2ccc(Cl)cc2Cl)[nH]1

kinase still bound, per cent of control (PRKCD (human)): 41% | kinase still bound, per cent of control (LATS2 (human)): 100% | kinase still bound, per cent of control (MAK (human)): 20% | kinase still bound, per cent of control (ITK (human)): 100% | kinase still bound, per cent of control (ROS1 (human)): 100% | kinase still bound, per cent of control (ULK3 (human)): 100% | kinase still bound, per cent of control (CDK14 (human)): 29% | kinase still bound, per cent of control [1]: 83% | kinase still bound, per cent of control (SIK1 (human)): 90% | kinase still bound, per cent of control (ROCK1 (human)): 68% | kinase still bound, per cent of control (CDC42BPB (human)): 97% | kinase still bound, per cent of control [2]: 87% | kinase still bound, per cent of control (MAP3K3 (human)): 88% | kinase still bound, per cent of control (BRSK2 (human)): 85% | kinase still bound, per cent of control (LCK (human)): 96% | kinase still bound, per cent of control (AKT1 (human)): 100% | kinase still bound, per cent of control (CDK18 (human)): 7.4% | kinase still bound, per cent of control (MAP3K9 (human)): 89% | kinase still bound, per cent of control (PAK4 (human)): 82% | kinase still bound, per cent of control [3]: 62% | kinase still bound, per cent of control (PRKG2 (human)): 73% | kinase still bound, per cent of control (CIT (human)): 85% | kinase still bound, per cent of control (PRKX (human)): 100% | kinase still bound, per cent of control [4]: 72% | kinase still bound, per cent of control (IRAK3 (human)): 100% | kinase still bound, per cent of control (PLK1 (human)): 85% | kinase still bound, per cent of control (HIPK1 (human)): 5% | kinase still bound, per cent of control (CLK1 (human)): 1.6% | kinase still bound, per cent of control (MYO3B (human)): 100% | kinase still bound, per cent of control (MAP2K2 (human)): 100% | kinase still bound, per cent of control (EPHA4 (human)): 100% | kinase still bound, per cent of control (LIMK2 (human)): 96% | kinase still bound, per cent of control (LYN (human)): 100% | kinase still bound, per cent of control (ROCK2 (human)): 100% | kinase still bound, per cent of control (NEK5 (human)): 99% | kinase still bound, per cent of control (CDC42BPG (human)): 100% | kinase still bound, per cent of control (TAOK3 (human)): 92% | kinase still bound, per cent of control (BRSK1 (human)): 90% | kinase still bound, per cent of control (PAK1 (human)): 80% | kinase still bound, per cent of control (PAK3 (human)): 86% | kinase still bound, per cent of control (PRKG1 (human)): 61% | kinase still bound, per cent of control (NEK6 (human)): 91%
Compound: Cn1cc(C2=C(c3ccc(Cl)cc3Cl)C(=O)NC2=O)c2ccccc21

kinase still bound, per cent of control (PRKCD (human)): 100% | kinase still bound, per cent of control (LATS2 (human)): 100% | kinase still bound, per cent of control (MAK (human)): 94% | kinase still bound, per cent of control (ITK (human)): 95% | kinase still bound, per cent of control (ROS1 (human)): 100% | kinase still bound, per cent of control (ULK3 (human)): 95% | kinase still bound, per cent of control (CDK14 (human)): 95% | kinase still bound, per cent of control [1]: 88% | kinase still bound, per cent of control (SIK1 (human)): 93% | kinase still bound, per cent of control (ROCK1 (human)): 61% | kinase still bound, per cent of control (CDC42BPB (human)): 75% | kinase still bound, per cent of control [2]: 3.6% | kinase still bound, per cent of control (MAP3K3 (human)): 97% | kinase still bound, per cent of control (BRSK2 (human)): 100% | kinase still bound, per cent of control (LCK (human)): 100% | kinase still bound, per cent of control (AKT1 (human)): 86% | kinase still bound, per cent of control (CDK18 (human)): 89% | kinase still bound, per cent of control (PAK4 (human)): 74% | kinase still bound, per cent of control [3]: 70% | kinase still bound, per cent of control (PRKG2 (human)): 100% | kinase still bound, per cent of control (CIT (human)): 89% | kinase still bound, per cent of control (PRKX (human)): 42% | kinase still bound, per cent of control [4]: 97% | kinase still bound, per cent of control (IRAK3 (human)): 100% | kinase still bound, per cent of control (PLK1 (human)): 100% | kinase still bound, per cent of control (HIPK1 (human)): 58% | kinase still bound, per cent of control (CLK1 (human)): 62% | kinase still bound, per cent of control (MYO3B (human)): 100% | kinase still bound, per cent of control (MAP2K2 (human)): 100% | kinase still bound, per cent of control (EPHA4 (human)): 100% | kinase still bound, per cent of control (LIMK2 (human)): 100% | kinase still bound, per cent of control (LYN (human)): 74% | kinase still bound, per cent of control (ROCK2 (human)): 100% | kinase still bound, per cent of control (NEK5 (human)): 100% | kinase still bound, per cent of control (CDC42BPG (human)): 100% | kinase still bound, per cent of control (TAOK3 (human)): 54% | kinase still bound, per cent of control (BRSK1 (human)): 100% | kinase still bound, per cent of control (PAK1 (human)): 94% | kinase still bound, per cent of control (PAK3 (human)): 90% | kinase still bound, per cent of control (PRKG1 (human)): 97%
Compound: COc1ccc(CNC(=O)Nc2ncc([N+](=O)[O-])s2)cc1
